{"source": "paper PMC10970923", "about": "“In Vitro Evaluation of Essential Oils and Saturated Fatty Acids for Repellency against the Old-World Sand Fly, Phlebotomus papatasi (Scopoli) (Diptera: Psychodidae)” (Insects, 2024)", "molecular_target": "T1, rPpAChE1 (recombinant acetylcholinesterase of P. papatasi) (Phlebotomus papatasi, UniProt M1F887)", "T1 construct": "gene AChE", "T1 sequence (M1F887 41-710)": "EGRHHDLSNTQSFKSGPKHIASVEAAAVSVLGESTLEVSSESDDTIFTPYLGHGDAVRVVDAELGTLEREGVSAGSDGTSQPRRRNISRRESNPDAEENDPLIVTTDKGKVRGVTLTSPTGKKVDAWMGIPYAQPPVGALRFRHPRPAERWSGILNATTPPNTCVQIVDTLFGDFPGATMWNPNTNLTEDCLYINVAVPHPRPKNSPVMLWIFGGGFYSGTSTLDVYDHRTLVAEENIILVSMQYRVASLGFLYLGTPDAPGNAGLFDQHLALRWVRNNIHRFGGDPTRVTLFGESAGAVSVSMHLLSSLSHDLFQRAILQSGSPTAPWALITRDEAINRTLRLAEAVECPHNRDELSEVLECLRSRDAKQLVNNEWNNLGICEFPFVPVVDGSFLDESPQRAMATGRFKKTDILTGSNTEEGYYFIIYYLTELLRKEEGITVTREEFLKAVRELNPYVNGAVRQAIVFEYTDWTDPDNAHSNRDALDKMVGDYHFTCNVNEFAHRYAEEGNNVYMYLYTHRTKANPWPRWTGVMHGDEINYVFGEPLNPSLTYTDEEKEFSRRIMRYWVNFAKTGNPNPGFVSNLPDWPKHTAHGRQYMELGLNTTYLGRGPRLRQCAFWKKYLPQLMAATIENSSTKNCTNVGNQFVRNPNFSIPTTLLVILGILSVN", "assay": "residual AChE activity from initial velocities", "format": "biochemical", "description": "residual AChE activity from initial velocities on rPpAChE1 (recombinant acetylcholinesterase of P. papatasi)", "note": "Read-outs that look alike come from different tables or passages of the source."}
{"smiles": "CCN(CC)C(=O)c1cccc(C)c1", "note": "[DEET, N,N-diethyl-m-toluamide]", "values": [{"measurement": "remaining activity at 1000 µM", "setting": "read-out: % Residual rPpAChE1 Activity (Compared to No Inhibitor) ± Std. Dev. ^* / DEET", "result": "93.2 ± 1.4", "unit": "%"}]}
{"smiles": "CCCCN(CCC(=O)OCC)C(C)=O", "note": "[IR3535]", "values": [{"measurement": "remaining activity at 1000 µM", "setting": "read-out: % Residual rPpAChE1 Activity (Compared to No Inhibitor) ± Std. Dev. ^* / IR3535", "result": "104 ± 5", "unit": "%"}]}
{"smiles": "CCCCCCCCC(=O)O", "note": "[Nonanoic acid]", "values": [{"measurement": "remaining activity at 1000 µM", "setting": "read-out: % Residual rPpAChE1 Activity (Compared to No Inhibitor) ± Std. Dev. ^* / Nonanoic Acid", "result": "96 ± 2.3", "unit": "%"}]}
{"smiles": "CCCCCCCCCCC(=O)O", "note": "[Undecanoic acid]", "values": [{"measurement": "remaining activity at 1000 µM", "setting": "read-out: % Residual rPpAChE1 Activity (Compared to No Inhibitor) ± Std. Dev. ^* / Undecanoic Acid", "result": "98.2 ± 0.4", "unit": "%"}]}
